Values of other authors, collected in patent publication US7825087B2 (Elan Pharma International Limited, priority 2005, dated 2010).

Assays:
bone marrow = conditions: animal models or man
[1] = distribution in blood, concentration dependent

Substance: [R—[R*,R*-(E)]]-cyclic (L-alanyl-D-alanyl-N-methyl-L-leucyl-N-methyl-L-leucyl-N-methyl-L-valyl-3-hydroxy-N,4-dimethyl-L-2-amino-6-octenoyl-L-(alpha)-amino-butyryl-N-methylglycyl-N-methyl-L-leucyl-L-valyl-N-methyl-L-leucyl) [cyclosporine]
- bone marrow suppression (bone marrow): does not cause bone marrow suppression
- fraction in erythrocytes [1]: 41%-58%
- fraction in granulocytes [1]: 5%-12%
- fraction in lymphocytes [1]: 4%-9%
